Results published in article PMC6058525, “A novel phenolic propanediamine moiety-based lung-targeting therapy for asthma” (Drug Delivery, 2018).
≈ marks a conversion by molar mass, not a printed value. One block for each molecule: values may come before it.

Legend:
A549 cells [1] = assay: Cellular uptake of TPD-Rhein in the presence of transporter inhibitors; format: cell-based, human; conditions: A549 cells preincubated 1 h with inhibitor 189 μM, then TPD-Rhein 18.9 μM 1 h; vs control without inhibitor
Procedure: The A549 cells were seeded in 6-well culture plates (5 × 10^5 cells/well). On the second day, cells were incubated with Rhein or TPD-Rhein solution at increasing concentrations (4.7, 9.3, 18.9 and 37.4 μM, respectively, equivalent to Rhein) at 37 °C for 1 h. Cells were rinsed three times with ice-cold PBS and collected for the determination of intracellular concentration. To explore the cell delivery mechanism of TPD, the cells were precubated with indicated inhibitors for 1 h and then incubated with TPD-Rhein (18.9 μM) for another 1 h. For energy depletion, cells were exposed to Rhein or TPD-Rhein (18.9 μM) for 0.5 h at 37 °C, 4 °C, or in the presence of NaN3 (1 mg/mL) for 1 h. Lysine and L-arginine were substrates of basic amino acid transporters (Zhou et al., [2016]). Pyrilamine was used to indicate pyrilamine-sensitive transporter (Okura et al., [2008]). Spermine and Spermidine were inhibitors of the alkaline polyamine transporter (Grancara et al., [2014]). […] Choline was a substrate of choline transport system (Taguchi et al., [2014]). TPD was performed as a competitive cationic inhibitor. The inhibitor concentrations were 10-fold (189 μM) of the concentration of TPD-Rhein. In the end, cells were rinsed three times with ice-cold PBS and the intracellular concentrations of Rhein or TPD-Rhein were measured by LC-MS/MS. Cellular uptake was expressed as the amount (nmol/L) of Rhein or TPD-Rhein per 1 mg of total cellular protein. The total protein concentration of cell lysates was measured using the BCA protein assay kit (Pierce, Appleton, WI).

A549 cells [2] = assay: Cell uptake study in A549 cells (LC-MS/MS); format: cell-based, human; conditions: 18.9 μM, NaN3 1 mg/mL
Procedure: The A549 cells were seeded in 6-well culture plates (5 × 10^5 cells/well). On the second day, cells were incubated with Rhein or TPD-Rhein solution at increasing concentrations (4.7, 9.3, 18.9 and 37.4 μM, respectively, equivalent to Rhein) at 37 °C for 1 h. Cells were rinsed three times with ice-cold PBS and collected for the determination of intracellular concentration. To explore the cell delivery mechanism of TPD, the cells were precubated with indicated inhibitors for 1 h and then incubated with TPD-Rhein (18.9 μM) for another 1 h. For energy depletion, cells were exposed to Rhein or TPD-Rhein (18.9 μM) for 0.5 h at 37 °C, 4 °C, or in the presence of NaN3 (1 mg/mL) for 1 h. Lysine and L-arginine were substrates of basic amino acid transporters (Zhou et al., [2016]). Pyrilamine was used to indicate pyrilamine-sensitive transporter (Okura et al., [2008]). Spermine and Spermidine were inhibitors of the alkaline polyamine transporter (Grancara et al., [2014]). […] In the end, cells were rinsed three times with ice-cold PBS and the intracellular concentrations of Rhein or TPD-Rhein were measured by LC-MS/MS. Cellular uptake was expressed as the amount (nmol/L) of Rhein or TPD-Rhein per 1 mg of total cellular protein. The total protein concentration of cell lysates was measured using the BCA protein assay kit (Pierce, Appleton, WI).

[3] = system: OVA-induced asthma model in rats; assay: Therapeutic effect on ovalbumin-induced asthma model; format: in vivo, rat; conditions: OVA-challenged asthmatic rats, i.v. Rhein 4.5 mg/kg/day or TPD-Rhein 7.7 mg/kg/day
Procedure: Wistar rats were used to evaluate the efficacy of Rhein and TPD-Rhein on asthma. Forty healthy male rats (200 ± 20 g) were randomly divided into four groups (n = 10). Asthma model in rats was established according to a previously reported method with slight modifications (Lu et al., [2015]). Briefly, on day 0, rats were systemically sensitized with an intraperitoneal injection with 1 mL of 10% ovalbumin (OVA). Two weeks after the sensitization, the rats were exposed to aerosolized OVA for 30 min of cycling three times per week for 14 weeks. The concentration of OVA was increased from 2% for 8 weeks to 4% for remaining 6 weeks to maintain the asthma condition. From weeks 3–16, the OVA-sensitized rats in the treatment groups were given normal saline, Rhein, or TPD-Rhein intravenously before OVA inhalation, at doses of 4.5 mg/kg/day for Rhein and 7.7 mg/kg/day for TPD-Rhein (dose equivalent to free drug treatment), respectively. The rats in the normal group received with the same volume of normal saline instead. One day after the last ultrasonic atomization, all rats were anesthetized by 3% sodium pentobarbital solution at a dose of 45 mg/kg. Then, 0.5 mL of intracardiac blood of each rat was collected. The histamine level and Interleukin-5 (IL-5) level in the supernatant serum were determined using Rat HIS ELISA kit (R&D Company, Minneapolis, MN) and Rat IL-5 ELISA Kit (R&D Company, Minneapolis, MN) according to the manufacturer’s instructions, respectively. Lungs were removed from sacrificed rats and lavaged to determine the IL-5 level using the corresponding kit. In the end, lungs were fixed in 4% buffered formalin, paraffin embedded and sectioned for hematoxylin and eosin staining (H&E) for conventional histological analysis.

L929 cells = assay: Cell uptake in L929 cells; format: cell-based, mouse
Source text: (§1) Male Wistar rats (body weight: 200 ± 20 g) were supplied by the Experimental Animal Center of Zhengzhou University (Zhengzhou, China). Rats were maintained in a germ-free environment and allowed free access to food and water for at least one week before experiments. All animal experiments were approved by the Institutional Animal Care and Ethics Committee of Zhengzhou University, according to the requirements of the National Act on the use of experimental animals (PR China). A549 cells (human pulmonary alveolar epithelial cells), L929 cells (mouse fibroblast cells), and Hela cells (human carcinoma cervical cells) were obtained from ATCC (Manassas, VA). The cells were cultured in DMEM with high glucose (GIBCO, Big Cabin, OK) supplemented with 20% fetal bovine serum and 1% penicillin/streptomycin. Routinely, cells were maintained at 37 °C in a humidified atmosphere containing 5% CO2, and the cell medium was changed every other day. The A549 cells were seeded in 6-well culture plates (5 × 10^5 cells/well). […] In the end, cells were rinsed three times with ice-cold PBS and the intracellular concentrations of Rhein or TPD-Rhein were measured by LC-MS/MS. Cellular uptake was expressed as the amount (nmol/L) of Rhein or TPD-Rhein per 1 mg of total cellular protein. The total protein concentration of cell lysates was measured using the BCA protein assay kit (Pierce, Appleton, WI).

[4] = Aqueous solubility in PBS; format: physicochemical; conditions: 25 °C, thermodynamic from solid
Procedure: The solubilities of Rhein and TPD-Rhein were determined in PBS with varying pH values (pH = 2 and 7.4) by equilibrating an excess of solid compound in 5 mL of buffer at 25 °C for 12 h. The samples were filtered through a 0.22 µm Millipore filter, diluted in methanol, and analyzed by LC-MS/MS. The chemical and enzymatic stabilities of TPD-Rhein were assessed in PBS with varying pH values (pH = 2, 4.5, 6.8, and 7.4), freshly prepared rat plasma and lung homogenates (diluted with 0.9% physiological saline) from rats at 37 °C, respectively. At predetermined time intervals, samples were immediately diluted by an equal amount of methanol to precipitate protein, vortexed for 5 min and centrifuged at 13,000 rpm for 10 min. The supernatant was then subjected to LC-MS/MS. Stability studies were performed in triplicate.

Hela cells = assay: Cell uptake in Hela cells; format: cell-based, human
Source text: as §1

[5] = Plasma pharmacokinetics after i.v. injection; format: in vivo; conditions: rat, iv, rats, 10 mg/kg Rhein equivalent
Procedure: Rhein or TPD-Rhein was injected through the tail vein of rats. For each preparation and sampling time point, five rats were treated with a single dose of Rhein at the dose of 10 mg/kg or TPD-Rhein at 17.2 mg/kg (dose equivalent to 10 mg/kg Rhein), respectively. The rats were scarified at predetermined time intervals (0.083, 0.25, 0.5, 1, 2, 4, 8, 16, and 24 h) after administration. The whole blood was quickly collected into heparinized tubes and centrifuged at 5000 rpm for 5 min to obtain plasma. Then, the tissues (heart, liver, spleen, lung, kidney, and brain) were rinsed with saline, weighed and homogenized with cold physiological saline (twice the weight of tissues). For Rhein treated rats, the content of Rhein in the homogenates was measured by LC-MS/MS. For TPD-Rhein treated rats, the samples were injected to LC-MS/MS to determine the concentration of free Rhein released and TPD-Rhein, respectively. The content of TPD-Rhein in tested tissues at different time point was the sum of TPD-Rhein and free Rhein released. The biodistribution of the two drugs in each organ was normalized by the weight of the selected tissue.
The pharmacokinetic data were calculated using the DAS software version 2.0 (Mathematical Pharmacology Professional Committee of China, Shanghai, China). The relative uptake efficiency (Re) and concentration efficiency (Ce) were used to evaluate the lung-targeting properties of TPD-Rhein. The values of Re and Ce were calculated as follows: Relung=(AUC0-t, lung)TPD-Rhein/(AUC0-t, lung)Rhein Celung=(Cmax, lung)TPD-Rhein/(Cmax, lung)Rhein

[6] = In vitro cytotoxicity, MTT assay; format: cell-based; conditions: human, A549 cells, under tested concentrations, read-out: A549 cells remaining viable
Procedure: To evaluate the in vitro cytotoxicity of Rhein and TPD-Rhein, MTT (3-(4, 5-dimethylthiazol-2-yl)-2, 5-diphenyltetrazolium bromide) assays were performed using A549 cell lines. Briefly, A549 cells were seeded in 96-well culture plates at a density of 1 × 10^4 cells/well and incubated at 37 °C for two days. On the day of administration, the cells were treated with different concentrations of Rhein solution, TPD-Rhein solution or TPD solution (dispersed in serum-free culture medium) for 4 h. An aliquot of 20 μL MTT solution (5 mg/mL) were added into each well and incubated at 37 °C for another 4 h. After that, all medium was removed and cells were rinsed with phosphate-buffered saline (PBS), and the formed dark blue formazan crystals in each well were dissolved in 150 μL DMSO. The absorbance of each individual well was read on a microplate reader (Thermo Scientific, Waltham, MA, Varioskan Flash) at 570 nm wavelength. Cells not exposed to samples were used as control (=100% viability).

Structure (SMILES): N=C(N)NCCC[C@H](N)C(=O)O [L-arginine]
- effect of inhibitor on cellular uptake of TPD-Rhein (A549 cells [1]): no obvious impact

Structure (SMILES): C[N+](C)(C)C[C@H](O)CC(=O)[O-] [L-carnitine]
- effect of inhibitor on cellular uptake of TPD-Rhein (A549 cells [1]): no obvious impact

Structure (SMILES): NCCCC[C@H](N)C(=O)O [L-lysine]
- effect of inhibitor on cellular uptake of TPD-Rhein (A549 cells [1]): no obvious impact

- intracellular amount at 4 °C or in the presence of NaN3 versus 37 °C (A549 cells [2]): no substantial difference
- uptake compared with A549 cells (L929 cells): slight decrease
- solubility at 12 h ([4]; pH 2, aqueous buffer, PBS pH 2.0, 25 °C): 3.56 ± 0.2 µg/mL (≈ 12.5 µM)
- solubility at 12 h ([4]; pH 7.4, aqueous buffer, PBS pH 7.4, 25 °C): 513 ± 32 µg/mL (≈ 1800 µM)
- uptake compared with A549 cells (Hela cells): slight decrease
- AUC(0-t) [5]: 206 ± 10.6 µM·h
- Cmax [5]: 308 ± 3.89 µM
- clearance ([5]; read-out: CLZ (converted)): 2.83 mL/min/kg
- Vd ([5]; read-out: VZ): 0.47 ± 0.02 L/kg
Structure (SMILES): O=C(O)c1cc(O)c2c(c1)C(=O)c1cccc(O)c1C2=O [Rhein, 4,5-dihydroxyanthraquinone-2-carboxylic acid]
- bronchoalveolar lavage fluid IL-5 level ([3]; vs asthmatic model group): no significant differences
- plasma (serum) IL-5 level ([3]; vs asthmatic model group): no significant differences
- lung histology (H&E) ([3]; vs asthmatic model rats): no significant improved anti-asthma efficacy

Structure (SMILES): CN(C)CCCN(C)Cc1ccc(O)cc1 [TPD, N,N,N’-trimethyl-N’-(4-hydroxyl-benzyl)-1,3-propanediamine]
- viability at 4 h [6]: > 90%
- effect of inhibitor on cellular uptake of TPD-Rhein (A549 cells [1]): abolish

Structure (SMILES): CC[N+](CC)(CC)CC.[Cl-] [Tetraethylammonium (TEA) chloride]
- effect of inhibitor on cellular uptake of TPD-Rhein (A549 cells [1]): significantly reduced

Structure (SMILES): C[N+](C)(C)CCO [choline]
- effect of inhibitor on cellular uptake of TPD-Rhein (A549 cells [1]): no obvious impact

Structure (SMILES): CN(C)CCCN1c2ccccc2CCc2ccccc21 [imipramine]
- effect of inhibitor on cellular uptake of TPD-Rhein (A549 cells [1]): significantly reduced

Structure (SMILES): COc1ccc(CN(CCN(C)C)c2ccccn2)cc1 [pyrilamine]
- effect of inhibitor on cellular uptake of TPD-Rhein (A549 cells [1]): no obvious impact

Structure (SMILES): NCCCCNCCCN [spermidine]
- effect of inhibitor on cellular uptake of TPD-Rhein (A549 cells [1]): no obvious impact

Structure (SMILES): NCCCNCCCCNCCCN [spermine]
- effect of inhibitor on cellular uptake of TPD-Rhein (A549 cells [1]): no obvious impact
